Columns and labels:
Type in all cases: in vivo
Settings in all cases: applied at 1000 g/h, evaluated after 13 days
[1] = system: Alopecurus myosuroides (ALOMY); assay: Herbicidal glasshouse test, pre-emergence, ALOMY
Setaria faberi (SETFA) [2] = assay: Herbicidal glasshouse test, pre-emergence, SETFA
[3] = system: Echinochloa crus-galli (ECHCG); assay: Herbicidal glasshouse test, pre-emergence, ECHCG
Procedure, shortened: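 In this pre-emergence glasshouse test, ECHCG seeds sown in pots of standard soil were sprayed one day after sowing with the test material in acetone/water (50:50) containing 0.5% Tween 20. Plants were kept at 24/16° C., 14 hours light, 65% humidity, and watered twice daily. Percentage damage was rated after 13 days on a 1–5 scale.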

Solanum nigrum (SOLNI) [4] = assay: Herbicidal glasshouse test, pre-emergence, SOLNI
Procedure, shortened: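 This pre-emergence glasshouse herbicide test used Solanum nigrum sown in standard soil. One day after sowing, pots were sprayed with the compound in acetone/water (50:50) with 0.5% Tween 20. They were then grown at 24/16° C., with 14 hours light and 65% humidity, and watered twice daily. Percentage damage was scored after 13 days on a five point scale, where 5=80-100% and 1=0-19%.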

[5] = system: Amaranthus retoflexus (AMARE); assay: Herbicidal glasshouse test, pre-emergence, AMARE
Procedure, shortened: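 This pre-emergence glasshouse herbicide test used Amaranthus retoflexus sown in standard soil. After one day of cultivation, an aqueous spray made from the technical ingredient in 50:50 acetone/water with 0.5% Tween 20 was applied. Pots stayed at 24/16° C., 14 hours light, 65% humidity, with twice-daily watering. Damage was rated on a five point scale (1=0-19% up to 5=80-100%).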

[6] = system: Ipomoea hederacea (IPOHE); assay: Herbicidal glasshouse test, pre-emergence, IPOHE
[7] = system: Alopecurus myosuroides (ALOMY); assay: Herbicidal glasshouse test, post-emergence, ALOMY
Setaria faberi (SETFA) [8] = assay: Herbicidal glasshouse test, post-emergence, SETFA
Procedure, shortened: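 This post-emergence glasshouse herbicide test used potted Setaria faberi. Plants were cultivated for 8 days under controlled conditions (24/16° C. day/night, 14 hours light, 65% humidity) and then treated with an aqueous spray made from an acetone/water (50:50) solution containing 0.5% Tween 20. After 13 days of further growth with twice-daily watering, damage was rated on a five point scale (5=80-100%; 1=0-19%).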

[9] = system: Echinochloa crus-galli (ECHCG); assay: Herbicidal glasshouse test, post-emergence, ECHCG
Procedure, shortened: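 In this post-emergence glasshouse test, barnyard grass (ECHCG) was cultivated for 8 days under controlled conditions (24/16° C. day/night, 14 hours light, 65% humidity). It was then sprayed with an aqueous solution of the technical compound in acetone / water (50:50) with 0.5% Tween 20. Plants were kept under the same conditions and watered twice daily. After 13 days, percentage damage was rated on a five point scale (5=80-100%; 1=0-19%).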

Solanum nigrum (SOLNI) [10] = assay: Herbicidal glasshouse test, post-emergence, SOLNI
[11] = system: Amaranthus retoflexus (AMARE); assay: Herbicidal glasshouse test, post-emergence, AMARE
Procedure, shortened: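 This post-emergence glasshouse test used AMARE plants raised in standard soil for 8 days under controlled conditions (24/16° C. day/night, 14 hours light, 65% humidity). Foliage was sprayed with formulated compound in acetone/water (50:50) containing 0.5% Tween 20. Plants were then watered twice daily, and after 13 days percentage damage was rated on a five point scale.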

[12] = system: Ipomoea hederacea (IPOHE); assay: Herbicidal glasshouse test, post-emergence, IPOHE

Structure (SMILES)	PRE Application ALOMY, percentage damage (five point scale) [1]	PRE Application SETFA, percentage damage (five point scale) (Setaria faberi (SETFA) [2])	PRE Application ECHCG, percentage damage (five point scale) [3]	PRE Application SOLNI, percentage damage (five point scale) (Solanum nigrum (SOLNI) [4])	PRE Application AMARE, percentage damage (five point scale) [5]	PRE Application IPOHE, percentage damage (five point scale) [6]	POST Application ALOMY, percentage damage (five point scale) [7]	POST Application SETFA, percentage damage (five point scale) (Setaria faberi (SETFA) [8])	POST Application ECHCG, percentage damage (five point scale) [9]	POST Application SOLNI, percentage damage (five point scale) (Solanum nigrum (SOLNI) [10])	POST Application AMARE, percentage damage (five point scale) [11]	POST Application IPOHE, percentage damage (five point scale) [12]
Cn1nnnc1NC(=O)c1nn(C)c(=O)n(Cc2ccc(C#N)cc2)c1=O [Compound 1.050]	5 (5=80-100%)	2 (2=20-39%)	5 (5=80-100%)	5 (5=80-100%)	5 (5=80-100%)	5 (5=80-100%)	5 (5=80-100%)	1 (1=0-19%)	5 (5=80-100%)	5 (5=80-100%)	5 (5=80-100%)	5 (5=80-100%)
Cc1ccc(Cn2c(=O)c(C(=O)Nc3nnnn3C)nn(C)c2=O)cc1 [Compound 1.051]	5 (5=80-100%)	1 (1=0-19%)	5 (5=80-100%)	5 (5=80-100%)	5 (5=80-100%)	5 (5=80-100%)	5 (5=80-100%)	2 (2=20-39%)	5 (5=80-100%)	5 (5=80-100%)	5 (5=80-100%)	5 (5=80-100%)
Cc1cccc(Cn2c(=O)c(C(=O)Nc3nnnn3C)nn(C)c2=O)c1 [Compound 1.052]	5 (5=80-100%)	1 (1=0-19%)	5 (5=80-100%)	5 (5=80-100%)	5 (5=80-100%)	2 (2=20-39%)	5 (5=80-100%)	1 (1=0-19%)	5 (5=80-100%)	5 (5=80-100%)	5 (5=80-100%)	5 (5=80-100%)
Cc1cccc(-n2c(=O)c(C(=O)Nc3nnnn3C)nn(C)c2=O)c1 [Compound 1.053]	5 (5=80-100%)	3 (3=40-59%)	5 (5=80-100%)	5 (5=80-100%)	5 (5=80-100%)	5 (5=80-100%)	5 (5=80-100%)	3 (3=40-59%)	4 (4=60-79%)	5 (5=80-100%)	5 (5=80-100%)	5 (5=80-100%)

— patent publication US20160009693A1, “HERBICIDAL COMPOUNDS” (SYNGENTA LIMITED, priority 2013, published 2016)
